In US7745152B2, “Method for determining genotoxicity” (priority 2004, dated 2010):
Where a name gives a salt, the structure may show the parent alone. Read-outs that look alike come from different tables or passages of the source. *1 amine or outer side, *2 acyl side, *3 side chain or, on linkers, in order; H or OH if unused. Where a SMILES comes first, the peptide text is derived from it. Bridges are numbered along the chain shown (N, C = ends). Roman numbers before positions name the chains, in order. [ ]: non-standard residue; d: D form. Actinocin(9to1) = Cc1c2oc3c(C)ccc(C(=O)[*:1])c3nc-2c(C(=O)[*:2])c(N)c1=O; NMeV = CN[C@H](C(=O)O)C(C)C; Sar = CNCC(=O)O

Test system: C2C12 cells

Structure (SMILES) | Lowest effective dose (mouse, 24 h) [µg/mL] | Lowest effective dose [µg/mL] | further results
O=[N+]([O-])c1ccc2c(c1)Cc1ccccc1-2 [2-nitrofluorene] | – | – | Lowest effective dose (mouse): 5.2 µg/mL
O=c1[nH]cc(F)c(=O)[nH]1 [5-fluorouracil] | 0.0008 | – | –
Cc1c2oc3c(C)ccc(C(=O)N[C@@H]4C(=O)N[C@H](C(C)C)C(=O)N5CCC[C@H]5C(=O)N(C)CC(=O)N(C)[C@@H](C(C)C)C(=O)O[C@@H]4C)c3nc-2c(C(=O)N[C@@H]2C(=O)N[C@H](C(C)C)C(=O)N3CCC[C@H]3C(=O)N(C)CC(=O)N(C)[C@@H](C(C)C)C(=O)O[C@@H]2C)c(N)c1=O [Actinomycin D] (I: T[dV]P[Sar][NMeV] / II: T[dV]P[Sar][NMeV]; ester I:1-I:C, II:1-II:C; linker I:N-II:N via Actinocin(9to1)) | – | 0.00075 | –
N.N.[Cl][Pt][Cl] [Cisplatin] | – | 0.15 | extreme block of differentiation: cell death in differentiation media: the cells begin to die after 3 days in differentiation media
CC/C(=C(/CC)c1ccc(O)cc1)c1ccc(O)cc1 [Diethylstilbestrol (DES), Diethylstilbestrol] | 1.8 | – | –
COc1cccc2c1C(=O)c1c(O)c3c(c(O)c1C2=O)C[C@@](O)(C(=O)CO)C[C@@H]3O[C@H]1C[C@H](N)[C@H](O)[C@H](C)O1 [Doxorubicin HCl] | 0.005 | – | –
